How the values were obtained:
SLA-1*04:01 = test: Peptide-MHC class I complex stability, scintillation proximity assay (SPA); design: species or system pig; conditions: biotinylated recombinant SLA heavy chain, 125I-β2m, excess unlabeled β2m, read every 40 min, number only if t1/2 ≥ 0.5 h, '-' = not stably binding
Method in brief: (§1)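 Biotinylated recombinant heavy chains captured on streptavidin scintillation plates with 125I-β2m and peptide; signal read every 40 min under dissociating conditions with excess unlabeled β2m. Signal duration gives complex half-life; ≥ 0.5 h counted as stable binder.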

SLA-1*07:02 = test: as above; design: species or system pig; conditions: biotinylated recombinant SLA heavy chain, 125I-β2m, excess unlabeled β2m, read every 40 min, number only if t1/2 ≥ 0.5 h, '-' = not stably binding
Method in brief: as §1

SLA-2*04:01 = test: as above; design: species or system pig; conditions: biotinylated recombinant SLA heavy chain, 125I-β2m, excess unlabeled β2m, read every 40 min, number only if t1/2 ≥ 0.5 h, '-' = not stably binding
Method in brief: as §1

SLA-2*05:02 = test: as above; design: species or system pig; conditions: biotinylated recombinant SLA heavy chain, 125I-β2m, excess unlabeled β2m, read every 40 min, number only if t1/2 ≥ 0.5 h, '-' = not stably binding
Method in brief: as §1

SLA-3*04:01 = test: as above; design: species or system pig; conditions: biotinylated recombinant SLA heavy chain, 125I-β2m, excess unlabeled β2m, read every 40 min, number only if t1/2 ≥ 0.5 h, '-' = not stably binding
Method in brief: as §1

PBMCs = test: In vitro peptide stimulation of porcine PBMCs, IFN-γ release assay (ELISA); type: cell-based, pig; design: key to T cell response: “x” indicates that a response was found to this given peptide at least once; conditions: PBMCs of immunized pigs, 2 × 10^5/well, 5 μg/ml peptide, 67.5–70.0 h, IFN-γ ELISA; response = 2-fold increase vs day -2 and at least 25 pg/ml IFN-γ, found at least once; SLA restriction not included
[1] = Dissolving of 20mer peptides for immunization; type: physicochemical; conditions: to 5 mM in milliQ water, N-methyl-2-pyrrolidone or 3% ammonia water
Procedure: Fifty-nine 20mer peptides with 10mer overlap covering the entire IDO and RhoC amino acid (aa) sequence were purchased from Genscript (New Jersey, U.S) or Pepscan Presto BV (Lelystad, the Netherlands). […] Peptides were dissolved to a concentration of 5 mM in milliQ water, N-methyl-2-pyrrolidone or 3% ammonia water in accordance with the supplier's recommendations, for further details see Supplementary Table 1.

Row | Substance | Binder (t1/2 ≥ 0.5 h): half-life of peptide-SLA-1*04:01 complex (SLA-1*04:01) | Binder (t1/2 ≥ 0.5 h): half-life of peptide-SLA-1*07:02 complex (SLA-1*07:02) | Binder (t1/2 ≥ 0.5 h): half-life of peptide-SLA-2*04:01 complex (SLA-2*04:01) | Binder (t1/2 ≥ 0.5 h): half-life of peptide-SLA-2*05:02 complex (SLA-2*05:02) | Binder (t1/2 ≥ 0.5 h): half-life of peptide-SLA-3*04:01 complex (SLA-3*04:01) | T cell response (PBMCs) | dissolving of peptide [1]
1 | MTYKNMDILF [IDO81, porcine IDO-derived 9-11mer peptide] | - (t1/2 (hours) is listed for each of the stably binding peptides (t1/2 ≥ 0.5 h)) | - (t1/2 (hours) is listed for each of the stably binding peptides (t1/2 ≥ 0.5 h)) | 4.2 h | - (t1/2 (hours) is listed for each of the stably binding peptides (t1/2 ≥ 0.5 h)) | - (t1/2 (hours) is listed for each of the stably binding peptides (t1/2 ≥ 0.5 h)) | – | –
2 | ALWDTAGQEDY [RhoC1, porcine RhoC-derived 9-11mer peptide] | 3.9 h | 0.9 h | – | – | – | x | –
3 | YPDTDVILMCF [RhoC59, porcine RhoC-derived 9-11mer peptide] | 1.0 h | 0.8 h | – | – | – | – | –
4 | RDMANRISAF [RhoC42, porcine RhoC-derived 9-11mer peptide] | - (t1/2 (hours) is listed for each of the stably binding peptides (t1/2 ≥ 0.5 h)) | – | - (t1/2 (hours) is listed for each of the stably binding peptides (t1/2 ≥ 0.5 h)) | – | - (t1/2 (hours) is listed for each of the stably binding peptides (t1/2 ≥ 0.5 h)) | – | –
5 | RLAHLVLGY [IDO104, porcine IDO-derived 9-11mer peptide] | - (t1/2 (hours) is listed for each of the stably binding peptides (t1/2 ≥ 0.5 h)) | 0.5 h | - (t1/2 (hours) is listed for each of the stably binding peptides (t1/2 ≥ 0.5 h)) | – | – | – | –
6 | SLHKALEVF [IDO117, porcine IDO-derived 9-11mer peptide] | - (t1/2 (hours) is listed for each of the stably binding peptides (t1/2 ≥ 0.5 h)) | - (t1/2 (hours) is listed for each of the stably binding peptides (t1/2 ≥ 0.5 h)) | – | – | – | – | –
7 | VLGYITMAY [IDO125, porcine IDO-derived 9-11mer peptide] | - (t1/2 (hours) is listed for each of the stably binding peptides (t1/2 ≥ 0.5 h)) | 1.0 h | 0.8 h | – | – | – | –
8 | EIAAASAIKVI [IDO16, porcine IDO-derived 9-11mer peptide] | 0.8 h | – | – | 12.5 h | – | x | –
9 | VLPRNIAIPY [IDO126, porcine IDO-derived 9-11mer peptide] | - (t1/2 (hours) is listed for each of the stably binding peptides (t1/2 ≥ 0.5 h)) | 0.7 h | – | – | – | x | –
10 | MANRISAFGY [RhoC39, porcine RhoC-derived 9-11mer peptide] | 0.7 h | 1.5 h | 1.4 h | – | – | x | –
11 | IDO330−350: 20mer peptide of the overlapping IDO/RhoC library, omitted due to dissolving problems (EAYDACVKALVSLRSYHLQIV; UniProt P14902 330-350, looked up, fragment) | – | – | – | – | – | – | dissolving problems
12 | RTYMPPAHRNF [IDO113, porcine IDO-derived 9-11mer peptide] | 1.0 h | – | - (t1/2 (hours) is listed for each of the stably binding peptides (t1/2 ≥ 0.5 h)) | - (t1/2 (hours) is listed for each of the stably binding peptides (t1/2 ≥ 0.5 h)) | - (t1/2 (hours) is listed for each of the stably binding peptides (t1/2 ≥ 0.5 h)) | – | –
13 | CVQAMVSLRNY [IDO9, porcine IDO-derived 9-11mer peptide] | - (t1/2 (hours) is listed for each of the stably binding peptides (t1/2 ≥ 0.5 h)) | 3.1 h | – | – | – | – | –
14 | KVLPRNIAIPY [IDO63, porcine IDO-derived 9-11mer peptide] | - (t1/2 (hours) is listed for each of the stably binding peptides (t1/2 ≥ 0.5 h)) | 0.7 h | – | – | - (t1/2 (hours) is listed for each of the stably binding peptides (t1/2 ≥ 0.5 h)) | x | –

— article PMC4584933, “Establishing the pig as a large animal model for vaccine development against human cancer” (Frontiers in Genetics, 2015)
